Test results as given in paper PMC10931479, “Exploration of hypoglycemic peptides from porcine collagen based on network pharmacology and molecular docking” (PLOS ONE, 2024).
“Also recorded” adds a separate entry of the source.

Key:
[1] = peptides from bovine skin collagen; cited from earlier work
Excerpt: (§1) At present, dietary proteins isolated from black beans, fermented soybean, balsam pear, and other sources have been identified as having anti-diabetic peptide properties. In vitro experiments have confirmed the hypoglycemic effects of many of these peptides, with some outperforming clinical drugs. […] He L, et al. isolated five peptides (GPVGPPG, GPPGPT, APGGAP, FGPGP, and GPVG) from bovine skin colla ...

α-glucosidase [2] = details: peptides from silkworm pupae; cited from earlier work
Excerpt: as §1

α-glucosidase [3] = test: α-Glucosidase activity inhibition test (pNPG); assay type: biochemical; details: 0.1 to 0.7 mg/mL; in vitro; comparison with acarbose where stated
Procedure: The samples were prepared at different concentrations (1-7 mg/mL), and the following compounds were prepared: α-glucosidase (0.1 Ua), PBS (pH 6.8, 0.05 mol/L), PNPG (2.5 mmol/L), and Na2CO3 (1 mol/L). The control, sample blank, and sample groups were incubated at their appropriate temperature and time, and the absorbance at 405 nm was measured using a microplate reader. The inhibitory activity was calculated using Eq (2). The inhibition rate of α-glucosidase was solved according to the concentration of different mass samples. The IC50 values were calculated based on the fitting curves. […] All experiments were conducted in triplicate and the data are expressed as the mean ± standard deviation (SD). Statistical analysis was performed using SPSS 27.0 software with Duncan's multiple and one-way ANOVA tests to determine the differences among the mean values. The mapping was done using prism and bioinformatics tools (http://www.bioinformatics.com.cn/).

Row | Substance | Anti-diabetic properties [1] | Suppression of α-glucosidase activity (α-glucosidase [2]) | other results
1 | APGGAP [peptide from bovine skin collagen] | exhibited anti-diabetic properties |  | 
2 | FGPGP [peptide from bovine skin collagen] | exhibited anti-diabetic properties |  | 
3 | GPPGPT [peptide from bovine skin collagen] | exhibited anti-diabetic properties |  | 
4 | GPVG [peptide from bovine skin collagen] | exhibited anti-diabetic properties |  | 
5 | GPVGPPG [peptide from bovine skin collagen] | exhibited anti-diabetic properties |  | 
6 | NSPR [peptide from silkworm pupae] |  | can suppress α-glucosidase activity | 
7 | NWYR [tetrapeptide from in silico trypsin hydrolysis of porcine collagen BAX02569.1, synthesized by solid-phase synthesis] |  |  | Inhibition of α-glucosidase in words (α-glucosidase [3]): significantly inhibited α-glucosidase activity in a concentration-dependent manner; also recorded: no significant difference between them and acarbose; also recorded: the inhibitory effect of NWYR was stronger
8 | QPGR [peptide from silkworm pupae] |  | can suppress α-glucosidase activity | 
9 | QPPT [peptide from silkworm pupae] |  | can suppress α-glucosidase activity | 
10 | SQSPA [peptide from silkworm pupae] |  | can suppress α-glucosidase activity | 
